Ends that are not written are not given here.
What was measured:
RTL1000 = test: Competition ELISA: peptides competing with rmCD74 for binding to plate-coated RTL1000; details: for competition with CD74 for binding to RTL1000 (in words): FIG. 3A; for LogIC50 vs RTL 1000 / IC50 vs RTL 1000: Table 1, from FIG. 3A, one-binding site fit; for IC50 vs RTL 1000: rmCD74 50 nM, in µM
Procedure: (§1) Competition of peptides with rmCD74 for binding to RTL1000 or DRα1mMOG35-55 was also tested. Briefly, 50 μl of 1 μg/ml either RTL1000 or DRα1mMOG-35-55 were coated onto ELISA plates at 25° C. for 2 hours. Each well was washed 4 times with 300 μl of PBS/0.0125% Tween 20 (PBS/T20) to remove excess of protein and then blocked with 5% BSA/PBS at pH 7.4 (BSA/PBS) for 2 hours at the same temperature. Serial 1:2 dilutions of α-helix 1 or α-helix 2 (starting with a concentration of 66 μM, 50 μg/ml each) were prepared in rmCD74 (in BSA/PBS, 50 nM, 0.5 ug/ml) and added to the plate. Competition for the binding site was allowed for 3 hours at 25° C. and then unbound complexes were washed 4 times with PBS/T20. Remaining rmCD74 bound to RTL1000 or DRα1mMOG-35-55 was detected by the PIN.1/anti-mouse IgG1-HRP at 1 ul/ml of both in BSA/PBS for 1.5 hours at 25° C. and visualized by adding TMB substrate (50 μl, according to the manufacturer's instructions). Color development was stopped with 0.1N HCl and the plate was read at 450 nm in an ELISA plate reader. Data were normalized and fitted to a one-binding site model and competitor concentration was plotted against Absorbance at 450 nm to determine the IC50 of each peptide competitor. All data were analyzed using Prism software (GraphPad).

DRα1mMOG-35-55 = test: Competition ELISA: peptides competing with rmCD74 for binding to plate-coated DRα1mMOG-35-55; details: for competition with CD74 for binding to DRα1-mMOG-35-55 (in words): FIG. 3A, FIGS. 4A/4B; for IC50: FIGS. 4A and 4B, peptides combined or alone, read-out: IC50 for blocking rmCD74 binding to DRα1mMOG-35-55; for LogIC50 vs DRα1mMOG-35-55 / IC50 vs DRα1mMOG-35-55: Table 1, from FIG. 3A, one-binding site fit; for IC50 vs DRα1mMOG-35-55: rmCD74 50 nM
Procedure: as §1

human MIF (hMIF) = biological target: T1, human MIF (hMIF) (Homo sapiens, UniProt P14174); test: Competition ELISA: peptides blocking rmCD74 binding to plate-coated hMIF; details: FIG. 2A/2B
T1 sequence (P14174 2-115 limits assumed): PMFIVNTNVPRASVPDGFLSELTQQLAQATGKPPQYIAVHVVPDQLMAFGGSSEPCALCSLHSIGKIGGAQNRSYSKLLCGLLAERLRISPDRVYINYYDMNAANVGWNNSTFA
Procedure: The ability of α-helix 1 and α-helix 2 peptides to compete with MIF for binding to CD74 was tested. Briefly, 50 μl of hMIF at a concentration of 0.5 μg/ml in PBS was coated onto ELISA plates for 2 hours at RT, washed 4 times with […] of PBS/0.0125% T20, blocked with 300 μl of 5% BSA in PBS, pH 7.4 for 2 hours at room temperature, and then a mixture of rmCD74 (constant concentration of 0.5 μg/ml) and competitor (SEQ ID NO: 2, SEQ ID NO: 4) at an initial concentration of 66 μM (33 μM each, mixed or 66 μM each, separately) in 5% BSA/PBS was added to the wells for 3 hours at room temperature to allow binding. Wells were thoroughly washed with PBS/T20 and the mAb PIN.1/anti-mIgG1-HRP (at 0.5 μg/ml in 5% BSA/PBS each) was used to detect the remaining rmCD74 bound to MIF. This mAb recognizes an epitope located at the N-terminus of the protein. Color was developed after adding 50 μl of TMB for 5 minutes and the reaction was stopped with 50 μl of 0.1N HCl. Data was first normalized and then analyzed using GraphPad Prism software. IC50 were calculated by fitting the curve to a competition model involving a two-binding site equation.

[1] = test system: experimental autoimmune encephalomyelitis (EAE); details: mice with EAE, treated after onset of clinical signs; cited from earlier work

Molecule	competition with CD74 for binding to RTL1000 (in words) (RTL1000)	LogIC50 vs RTL 1000 (RTL1000)	IC50 vs RTL 1000 (RTL1000)	competition with CD74 for binding to DRα1-mMOG-35-55 (in words) (DRα1mMOG-35-55)	IC50 (DRα1mMOG-35-55) [µM]	LogIC50 vs DRα1mMOG-35-55 (DRα1mMOG-35-55)	IC50 vs DRα1mMOG-35-55 (DRα1mMOG-35-55)	blocking of rmCD74 binding to human MIF (in words) (human MIF (hMIF))	blocking of rmCD74 binding to human MIF (in words) (human MIF (hMIF); listed as SEQ ID NO: 2)	competition with CD74 for binding to DRα1-mMOG-35-55 (in words) (DRα1mMOG-35-55; listed as SEQ ID NO: 4)	effect on EAE (in words) [1]
TEDHVMHLLQNAD [α-helix 1]	able to outcompete	0.8309	6.775	able to outcompete	35	1.002	10.05	blocks CD74 binding to hMIF	able to block	–	–
KGSFPENLRHLKNTMET [α-helix 2]	competes to a lesser extent	1.535	34.27	did not have a significant effect	24.5	2.222	166.6	to a lesser extent	–	competes to a lesser extent	–
DRα1-MOG-35-55: second generation derivative of RTL1000, partial MHC molecule DRα1 construct that binds CD74 (protein) MEVGWYRSPFSRVVHLYRNGKGGGGSLVPRGSGGGGIKEEHVIIQAEFYLNPDQSGEFMFDFDGDEIFHVDMAKKETVWRLEEFGRFASFEAQGALANIAVDKANLEIMTKRSNYTPITN	–	–	–	–	–	–	–	–	–	–	reduced disease severity

Source: US10525101B2, “Methods of treating inflammatory or autoimmune disorders with compounds that bind macrophage migration inhibitory factor” (Oregon Health & Science University, priority 2015, dated 2020)
